What was measured:
[1] = target: T1, Histone deacetylase 8 (Homo sapiens, UniProt Q9BY41); experiment: Inhibition of HDAC8 (unknown origin) by fluorescence based assay
T1 sequence (Q9BY41 whole entry): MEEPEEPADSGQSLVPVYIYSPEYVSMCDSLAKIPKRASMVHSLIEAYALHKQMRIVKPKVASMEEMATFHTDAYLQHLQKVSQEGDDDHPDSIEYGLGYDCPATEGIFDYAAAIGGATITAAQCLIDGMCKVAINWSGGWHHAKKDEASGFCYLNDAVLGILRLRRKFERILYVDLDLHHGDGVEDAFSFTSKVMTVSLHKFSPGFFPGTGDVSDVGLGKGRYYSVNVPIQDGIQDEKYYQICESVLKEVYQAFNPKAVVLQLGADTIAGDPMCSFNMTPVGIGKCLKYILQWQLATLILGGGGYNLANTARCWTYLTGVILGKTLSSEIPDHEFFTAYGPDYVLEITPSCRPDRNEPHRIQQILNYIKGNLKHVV

[2] = target: Histone deacetylase; experiment: Inhibition of HDAC (unknown origin) using Fluoro-Substrate Peptide as substrate by fluorescence assay; format: protein assay, Homo sapiens
[3] = test system: U-937; experiment: Cytotoxicity against human U-937 cells assessed as reduction in cell viability; format: functional, cell-based
[4] = test system: MOLT-4; experiment: Cytotoxicity against human MOLT-4 cells assessed as reduction in cell viability; format: functional, cell-based
[5] = test system: Jurkat E6.1; experiment: Cytotoxicity against human Jurkat E6.1 cells assessed as reduction in cell viability; format: functional, cell-based

Compound | IC50 [1] [µM] | IC50 [2] [µM] | IC50 [3] [µM] | IC50 [4] [µM] | IC50 [5] [µM]
O=C(O)CC[C@H](NC(=O)Cc1ccc(Br)cc1)C(=O)NCc1ccccc1 | ≤ 10 | > 10 | > 35 | ≤ 35 | ≤ 35
O=C(O)CC[C@H](NC(=O)Cc1ccccc1)C(=O)NC1CCCCC1 |  |  | ≤ 35 | > 35 | ≤ 35
CC(C)CNC(=O)[C@H](CCC(=O)O)NC(=O)Cc1ccc(Br)cc1 |  |  | > 35 | > 35 | > 35
CC(C)(C)NC(=O)[C@H](CCC(=O)O)NC(=O)Cc1ccc([N+](=O)[O-])cc1 |  |  | > 35 | < 35 | > 35
COc1ccc(CC(=O)N[C@@H](CCC(=O)O)C(=O)NC(C)(C)C)cc1 |  |  | > 35 | > 35 | > 35
CCCNC(=O)[C@H](CCC(=O)O)NC(=O)Cc1ccccc1F |  |  | > 35 | > 35 | > 35
COc1ccc(CNC(=O)[C@H](CCC(=O)O)NC(=O)Cc2ccc(Br)cc2)cc1 | ≤ 10 | > 10 | > 35 | < 35 | < 35
CCCCNC(=O)[C@H](CCC(=O)O)NC(=O)Cc1ccc(Cl)cc1Cl |  |  | > 35 | < 35 | < 35
CCCCNC(=O)[C@H](CCC(=O)O)NC(=O)Cc1ccccc1F |  |  | > 35 | > 35 | < 35
CCCCNC(=O)[C@H](CCC(=O)O)NC(=O)Cc1ccc(Br)cc1 |  |  | > 35 | ≤ 35 | ≤ 35
O=C(O)CC[C@H](NC(=O)Cc1ccc(Cl)cc1)C(=O)NC1CCCCC1 |  |  | > 35 | < 35 | < 35
O=C(O)CC[C@H](NC(=O)Cc1ccc(-c2ccccc2)cc1)C(=O)NC1CCCCC1 |  |  | > 35 | < 35 | < 35
CCCCCCNC(=O)[C@H](CCC(=O)O)NC(=O)Cc1ccc(-c2ccccc2)cc1 | > 10 | > 10 |  |  | 
O=C(O)CC[C@H](NC(=O)Cc1ccc(Br)cc1)C(=O)NCc1ccccc1Cl | ≤ 10 | > 10 | > 35 | < 35 | > 35
CC(C)NC(=O)[C@H](CCC(=O)O)NC(=O)Cc1ccc(-c2ccccc2)cc1 |  |  | > 35 | > 35 | < 35
CCCCCNC(=O)[C@H](CCC(=O)O)NC(=O)Cc1ccccc1 |  |  | > 35 | ≤ 35 | ≤ 35

Compound | IC50 [1] [µM] | IC50 [2] [µM] | IC50 [3] [µM] | IC50 [4] [µM] | IC50 [5] [µM]
CC(C)NC(=O)[C@H](CCC(=O)O)NC(=O)Cc1ccccc1F |  |  | > 35 | > 35 | > 35
O=C(O)CC[C@H](NC(=O)Cc1ccccc1)C(=O)Nc1ccccc1 |  |  | ≤ 35 | ≤ 35 | ≤ 35
O=C(O)CC[C@H](NC(=O)Cc1ccc(-c2ccccc2)cc1)C(=O)NCc1ccccc1 | ≤ 10 | > 10 | < 35 | < 35 | < 35
CC(C)CNC(=O)[C@H](CCC(=O)O)NC(=O)Cc1ccccc1F |  |  | > 35 | ≤ 35 | ≤ 35
CCCNC(=O)[C@H](CCC(=O)O)NC(=O)Cc1ccccc1 |  |  | > 35 | ≤ 35 | ≤ 35
CCCNC(=O)[C@H](CCC(=O)O)NC(=O)Cc1ccc(Cl)cc1 |  |  | > 35 | > 35 | ≤ 35
CCCCCCNC(=O)[C@H](CCC(=O)O)NC(=O)Cc1ccccc1Cl |  |  | > 35 | > 35 | > 35
COc1ccc(CC(=O)N[C@@H](CCC(=O)O)C(=O)NCc2ccccc2)cc1 |  |  | > 35 | ≤ 35 | ≤ 35
O=C(O)CC[C@H](NC(=O)Cc1ccc([N+](=O)[O-])cc1)C(=O)NCc1ccccc1 |  |  | > 35 | < 35 | < 35
CCCCCCNC(=O)[C@H](CCC(=O)O)NC(=O)Cc1ccccc1Br |  |  | < 35 | < 35 | < 35
O=C(O)CC[C@H](NC(=O)Cc1ccccc1Br)C(=O)Nc1ccccc1 |  |  | > 35 | < 35 | > 35
O=C(O)CC[C@H](NC(=O)Cc1ccccc1Cl)C(=O)NCc1ccccc1 |  |  | > 35 | ≤ 35 | ≤ 35
CC(C)CNC(=O)[C@H](CCC(=O)O)NC(=O)Cc1ccc(-c2ccccc2)cc1 |  |  | > 35 | > 35 | > 35
CCCCCCNC(=O)[C@H](CCC(=O)O)NC(=O)Cc1ccc(Br)cc1 | ≤ 10 | > 10 | > 35 | ≤ 35 | ≤ 35
CC(C)NC(=O)[C@H](CCC(=O)O)NC(=O)Cc1ccc(Cl)cc1 |  |  | ≤ 35 | ≤ 35 | ≤ 35

Source: ChEMBL document CHEMBL5625174, “Are inhibitors of histone deacetylase 8 (HDAC8) effective in hematological cancers especially acute myeloid leukemia (AML) and acute lymphoblastic leukemia (ALL)?” (Eur J Med Chem, 2023)
